Laboratory results as given in patent US7053041B1, “Methods and compositions useful for inhibition of αvβ5mediated angiogenesis” (The Scripps Research Institute, priority 1996, dated 2006).
“Also recorded” adds a separate entry of the source. [ ]: non-standard residue; d: D form.

Assays:
[1] = test system: bFGF-induced angiogenesis; assay: in vivo rabbit eye model assay, bFGF-induced corneal angiogenesis
Experimental: (§1) Hydron polymer pellets containing growth factor and monoclonal antibodies (mAbs) were prepared as described by D'Amato, et al., Proc. Natl. Acad. Sci., 91:4082–4085 (1994). […] In addition, hydron pellets were prepared which contained either 40 μg of the mAb P1F6 (anti-αvβ5) or the control antibody, LM609 (anti-αvβ3), in PBS.
(§2) All of the mAbs tested were purified from ascites fluid using Protein-A Sepharose CL-4B affinity column chromatography according to well-known methods. The eluted immunoglobulin was then dialyzed against PBS and treated with Detoxi-gel (Pierce Chemicals, Rockford, Ill.) to remove endotoxin. […] Monoclonal antibodies were therefore tested for the presence of endotoxin with the Chromogenic Limulus Amebocyte Lysate Assay (BioWhittaker, Walkersville, Md.) and only those mAbs without detectable endotoxin were used in the rabbit eye model assay.
(§3) Approximately 12 μl of casting material was placed into each peg and polymerized overnight in a sterile hood. Pellets were then sterilized by ultraviolet irradiation.
A series of eight animals were used for paired eye experiments where each animal received a Hydron implant containing a preselected cytokine with a preselected antibody or control immunoglobulin. Specifically, for each rabbit, one cornea was surgically implanted with a Hydron pellet containing either bFGF or VEGF in conjunction with mAb P1F6 and the other cornea was treated with either bFGF or VEGF in conjunction with MAb LM609. Individual pellets were implanted into surgically created “pockets” formed in the mid-stroma of the cornea of rabbits. The surgical procedure was done under sterile technique using a Wild model M691 operating microscope equipped with a beamsplitter to which was mounted a camera for photographically recording individual corneas. A 3 mm by 5 mm “pocket” was created in the corneal stroma by making a 3 mm incision to half the corneal thickness with a 69 Beaver blade. The stroma was dissected peripherally using an iris spatula and the pellet was implanted with its peripheral margin 2 mm from the limbus. […]
(§4) The effects of specific mAb integrin immunoreactivity on the above cytokine-induced angiogenesis is also quantified as shown in FIGS. 2A and 2B. […] Photographs were recorded on Kodak Ektachrome 64T slide film and images were converted for computer-assisted quantitation using Biorad's Molecular Analyst 1.1 software after acquisition through a Model GS670 imaging densitometer. […]
(§5) Each experiment consisted of eight rabbits in which one eye received a pellet comprising 100 nanograms (ng) bFGF and the other eye received a pellet comprising 1 microgram (ug) VEGF. […] After 7 days, the cornea were evaluated as described above.

[2] = test system: VEGF-induced angiogenesis; assay: in vivo rabbit eye model assay, VEGF-induced corneal angiogenesis
Experimental: as §1, §2, §3
A series of eight animals were used for paired eye experiments where each animal received a Hydron implant containing a preselected cytokine with a preselected antibody or control immunoglobulin. Specifically, for each rabbit, one cornea was surgically implanted with a Hydron pellet containing either bFGF or VEGF in conjunction with mAb P1F6 and the other cornea was treated with either bFGF or VEGF in conjunction with MAb LM609. […]
as §4, §5

[3] = test system: VEGF-induced angiogenesis; assay: chick CAM assay, VEGF-induced angiogenesis, intravenous inhibitors; assay type: in vivo; details: for inhibition of VEGF-induced CAM angiogenesis: VEGF 150 ng/ml, 75 μg antibody or peptide intravenously, 72 hours
Experimental: Ten day old chick embryos were obtained from McIntyre Poultry (Lakeside, Calif.) and incubated at 37C with 60% humidity. A small hole was made through the shell at the end of the egg directly over the air sac with the use of a small crafts drill (Dremel, Division of Emerson Electric Co., Racine, Wis.). A second hole was drilled on the broad side of the egg in a region devoid of embryonic blood vessels determined previously by candling the egg. […] A 1.0 centimeter (cm)×1.0 cm square window was cut through the shell over the dropped CAM with the use of a small model grinding wheel (Dremel). The small window allowed direct access to the underlying CAM.
Angiogenesis was induced by placing a 5 millimeter (mm)×5 mm Whatman filter disk (Whatman Filter paper No. 1) saturated with Hanks Balanced Salt Solution (HBSS, GIBCO, Grand Island, N.Y.) or HBSS containing preselected cytokines at a preselected concentration, i.e. one to test the effect on angiogenesis, on the CAM of a 10 day chick embryo in a region devoid of blood vessels and the windows were later sealed with tape. Angiogenesis was monitored by photomicroscopy after 72 hours. CAMs were snap frozen then 6 μm cryostat sections were fixed with acetone and stained by immunofluorescence as described in Example 2B and 2C with 10 μg/ml of selected anti-integrin antibodies, including those directed against αvβ5 as described in Example 1.
Angiogenesis was first induced on 10 day old chick embryos by application of growth factor-saturated filter disks. Specifically, in the first assays, angiogenesis was induced by exposure to either bFGF or VEGF, each at a concentration of 150 ng/ml.
For application of growth factors, during the candling procedures, prominent blood vessels were selected and marks were made on the egg shell to indicate their positions. The holes were drilled in the shell, the CAMs were dropped and growth factor-saturated filter papers were then separately placed on the CAMs as described above. The windows were sealed with sterile tape and the embryos were replaced in the incubator.
Twenty four hours later, a second small window was carefully cut on the lateral side of the egg shell directly over prominent blood vessels selected previously. The outer egg shell was carefully removed leaving the embryonic membranes intact. The shell membrane was made transparent with a small drop of mineral oil (Perkin-Elmer Corp, Norwalk, Conn.) which allowed the blood vessels to be visualized easily. Then, phosphate buffered saline (PBS), 75 μg of purified sterile anti-integrin antibodies or 75 μg of synthetic peptides (cyclic peptide RGDfV, SEQ ID NO 4 and control cyclic peptide RADfV, SEQ ID NO 5) in PBS were injected into blood vessels apparent on the growth factor-induced CAMs. The windows were sealed with tape and the embryos were allowed to incubate until 72 hours.
The filter discs and representative surrounding CAM tissues were photographed in a stereomicroscope (FIGS. 3A–3F and FIGS. 5A–5F) and the mean angiogenic index +/− the standard error was determined for 12 CAMs per condition (FIGS. 4A–4B and FIGS. 6A–6B). Angiogenesis was scored for each embryo in a double blind manner by analyzing the number and extent of branching of blood vessels within the area of each disc. The scores ranged from 1 (low) to 4 (high) and the angiogenesis index was determined by subtracting a background of 1 from all data.
In a further assay performed in the CAM model having VEGF-induced angiogenesis, 2 μg of peptides 85189 (SEQ ID NO 9) and the inert salt counterpart 121974 were separately intravenously injected as previously described. The effect of the peptides was assessed in comparison to that of control peptide 69601 (SEQ ID NO 5) and to untreated (labeled as NT) preparations.
The effect of the peptides of VEGF-induced angiogenesis is measured through a determination of the number of blood vessel branch points. […]

Molecule: cyclo(Arg-Gly-Asp-D-Phe-NMeVal) [peptide 85189]
- amount of corneal blood vessel growth compared to controls ([1]; peptide s.q. 50 ug per kg initial, 20 ug/kg daily, 7 days, 100 ng bFGF pellet): less than 50%
- inhibition of corneal blood vessel growth ([2]; peptide s.q. 50 ug per kg initial, 20 ug/kg daily, 7 days, 1 ug VEGF pellet): ~100%
- inhibition of VEGF-induced CAM angiogenesis (number of blood vessel branch points) ([3]; 2 μg peptide intravenously): completely inhibited angiogenesis

Molecule: cyclo(Arg-Ala-Asp-D-Phe-Val) (cyclo(RAD[dF]V); SMILES CC(C)[C@@H]1NC(=O)[C@@H](Cc2ccccc2)NC(=O)[C@H](CC(=O)O)NC(=O)[C@H](C)NC(=O)[C@H](CCCNC(=N)N)NC1=O) [peptide 69601, reference compound]
- corneal blood vessel growth at 7 days, bFGF-stimulated eyes ([1]; peptide s.q. 50 ug per kg initial, 20 ug/kg daily, 100 ng bFGF pellet): substantial corneal blood vessel growth
- corneal blood vessel growth at 7 days, VEGF-stimulated eyes ([2]; peptide s.q. 50 ug per kg initial, 20 ug/kg daily, 1 ug VEGF pellet): substantial corneal blood vessel growth
- inhibition of VEGF-induced CAM angiogenesis [3]: did not effect angiogenesis

B1: LM609: mouse monoclonal antibody, anti-αvβ3 (antibody, V domains shown)
VH: EVQLEESGGGLVKPGGSLKLSCAASGFAFSSYDMSWVRQIPEKRLEWVAKVSSGGGSTYYLDTVQGRFTISRDNAKNTLYLQMSSLNSEDTAMYYCARHNYGSFAYWGQGTLVTVSA
VL: ELVMTQTPATLSVTPGDSVSLSCRASQSISNHLHWYQQKSHESPRLLIKYASQSISGIPSRFSGSGSGTDFTLSINSVETEDFGMYFCQQSNSWPHTFGGGTKLEIKRA
- reduction of bFGF-induced angiogenesis (mean neovascular area) ([1]; 40 μg mAb in pellet, compared to paired eye treated with P1F6, p<0.005): 86%
- inhibition of bFGF-induced corneal angiogenesis ([1]; Hydron pellet with 750 ng bFGF and 40 μg mAb, postoperative day 10): inhibited
- inhibition of VEGF-induced corneal angiogenesis ([2]; Hydron pellet with 750 ng VEGF and 40 μg mAb, postoperative day 10): not effective at inhibiting VEGF-induced angiogenesis; also recorded: minimal effect on VEGF-induced angiogenesis
- inhibition of VEGF-induced CAM angiogenesis [3]: little effect on angiogenesis
- effect on CAM angiogenesis induced by VEGF (angiogenesis index) ([3]; VEGF 1.0 μg/ml, antibodies 75 μg per embryo, calphostin C 100 nM): failed to do so
